In US11292758B2, “Compounds and methods for delivery of prostacyclin analogs” (United Therapeutics Corporation, priority 2003, dated 2022):

Legend:
[1] = Moisture sorption / hygroscopicity of treprostinil diethanolamine polymorphs; type: physicochemical; settings: for weight gain in humidity chamber: 23 days
Method: The initial material synthesized (termed Form A) was characterized using X-ray powder diffraction (XRPD), differential scanning calorimetry (DSC), thermogravimetry (TG), hot stage microscopy, infrared (IR) and Raman spectroscopy, and moisture sorption. The IR and Raman spectra for Form A are shown in FIGS. 16 and 17, respectively. […] The moisture sorption data are shown graphically in FIG. 19. […] In addition, hygroscopicity of treprostinil diethanolamine was evaluated in humidity chambers at approximately 52% RH and 68% RH. […] Upon desorption from 95% down to 5% RH, the sample loses approximately 47%.

[2] = slurry inter-conversion in isopropanol and tetrahydrofuran
Excerpt: Form A is made according to the methods in Table 15. Form B is made from Form A, in accordance with the procedures of Table 16.

[3] = Clinical Study 01-101: escalating doses of UT-15C oral solution; settings: for mean absolute bioavailability: based on historical intravenous treprostinil sodium data
Method: Prior to proceeding directly into clinical studies with a sustained release (SR) solid dosage form of UT-15C (treprostinil diethanolamine), a determination of the pharmacokinetics of an oral “immediate release” solution was performed.
A Safety, Tolerability, and Pharmacokinetic Study of Multiple Escalating Doses of UT-15C (Treprostinil Diethanolamine) Administered as an Oral Solution in Healthy Adult Volunteers (Including Study of Bioavailability).
Study endpoints included standard safety assessments (adverse events, vital signs, laboratory parameters, physical examinations, and electrocardiograms) as well as pharmacokinetic parameters.

[4] = Treprostinil plasma concentrations in rats after a single intraduodenal dose of prodrugs (Example 3); settings: rat; for Tmax (of Treprostinil) / Maximum Treprostinil concentrations: intraduodenal; for Maximum Treprostinil concentrations: 5 minutes post-dosing; for adverse reactions following intraduodenal administration: single intraduodenal dose
Excerpt: This example illustrates a pharmacokinetic study of treprostinil following administration of a single duodenal dose of treprostinil and various prodrugs of the present invention.
In this study, the area under the curve of Treprostinil in male Sprague-Dawley rats following a single intraduodenal dose of treprostinil monophosphate (ring), treprostinil monovaline (ring), treprostinil monoalanine (ring) or treprostinil monoalanine (chain), prodrugs of treprostinil was compared. The compounds were as follows:
This solution was further diluted with 1.50 mL of PEG 400:Polysorbate 80:Water, 40:1:49.
A 50 mg/mL solution of treprostinil monovaline (ring) was prepared in dimethylacetamide (DMA). A 25 μL aliquot of the 50 mg/mL stock solution was then diluted with 175 μL of DMA and 1.8 mL of PEG 400:Polysorbate 80:Water, 40:1:49.
This solution was further diluted with 1.60 mL of PEG 400:polysorbate 80:Water, 40:1:49. The final concentration of the dosing vehicle was 0.590 mg/mL of treprostinil monoalanine (ring) equivalent to 0.5 mg/mL of Treprostinil.
A solution of treprostinil monoalanine (chain) was prepared by dissolving 0.83 mg of treprostinil monoalanine (chain) in 0.14 mL of dimethylacetamide (DMA) until dissolved. This solution was further diluted with 1.26 mL of PEG 400:Polysorbate 80:Water, 40:1:49.
The plasma concentrations of Treprostinil following […] of each prodrug were evaluated in male Sprague-Dawley rats. […] All groups were dosed on day 1 of the study.
Animals were dosed via an indwelling duodenal cannula.
The blood samples were withdrawn and placed into tubes containing 30 μL of a solution of 500 units per mL of heparin in saline, and centrifuged at 13,000 rpm for 10 minutes. Approximately 200 μL of plasma was then removed and dispensed into appropriately labeled polypropylene tubes containing 4 μL of acetic acid in order to stabilize any prodrug remaining in the samples. The plasma samples were frozen at −20° C. and were transported on ice to Absorption Systems Exton Facility. There they were stored in a −80° C. freezer pending analysis.
Plasma samples were analyzed using the methods described above. In brief, Treprostinil was extracted from the plasma via solid phase extraction then analyzed by LC/MS/MS. The lower limit of quantification (LLOQ) of the analytical method was 0.03 ng/mL.
Pharmacokinetic analysis was performed on the plasma concentration of Treprostinil for each individual rat at each time point and on the average plasma concentration for all three rats in the group for each time point.
The following formula was used to determine relative bioavailability (F): Relative F=(AUC(Prodrug Dose)/Dose)/(AUC(Treprostinil Dose)/Dose)*100

[5] = subcutaneous infusion; cited from earlier work
[6] = Treprostinil plasma concentrations in rats after a single oral dose of prodrugs (Example 2); type: in vivo, male Sprague-Dawley rats; settings: rat; for Treprostinil AUC compared with dosing the active compound: oral; for adverse reactions following oral administration: single oral dose
Method: In this Example, Treprostinil concentrations were determined in male Sprague-Dawley rats following a single oral dose of the following compounds:
A solution of treprostinil methyl ester was prepared by dissolving 2.21 mg of treprostinil methyl ester with 0.85 mL of dimethylacetamide (DMA). […] The final concentration of the dosing vehicle was 0.26 mg/mL of treprostinil methyl ester equivalent to 0.25 mg/mL of Treprostinil.
A solution of treprostinil benzyl ester was prepared by dissolving 2.58 mg of treprostinil benzyl ester with 0.84 mL of dimethylacetamide (DMA). […] The final concentration of the dosing vehicle was 0.268 mg/mL of treprostinil benzyl ester equivalent to 0.25 mg/mL of Treprostinil.
A solution of treprostinil diglycine was prepared by dissolving 1.86 mg of compound with 0.58 mL of dimethylacetamide (DMA). […] The final concentration of the dosing vehicle was 0.323 mg/mL of treprostinil diglycine equivalent to 0.25 mg/mL of Treprostinil.
Groups I-III were dosed on the same day.
Animals were dosed via oral gavage.
Plasma samples were analyzed as described in Example 1. In brief, Treprostinil was extracted from the plasma via liquid-liquid extraction then analyzed by LC/MS/MS. The analytical validation results were reported previously in Example 1. […] Samples were not assayed for unchanged prodrug.

CCCCC[C@H](O)CC[C@@H]1[C@H]2Cc3cccc(OCC(=O)O)c3C[C@H]2C[C@H]1O.OCCNCCO [Form A]
hygroscopicity [1]: hygroscopic | weight gain during moisture sorption ([1]; beginning between 65 to 75% RH): > 33% | thermodynamic stability of the crystal form [2]: metastable

CCCCC[C@H](O)CC[C@@H]1[C@H]2Cc3cccc(OCC(=O)O)c3C[C@H]2C[C@H]1O.OCCNCCO [UT-15C, Treprostinil Diethanolamine]
weight gain in humidity chamber ([1]; ~52% RH): 4.9% | weight gain in humidity chamber ([1]; ~68% RH): 28% | Treprostinil plasma concentrations detectable [3]: detectable in all subjects | changes in hematology, clinical chemistry, urinalysis, vital signs, physical exams, and ECGs [3]: no clinically significant, treatment emergent changes | most frequently reported adverse events [3]: flushing, headache, and dizziness | mean absolute bioavailability ([3]; 0.2 mg total dose): 21% | mean absolute bioavailability ([3]; 0.5 mg total dose): 23% | mean absolute bioavailability ([3]; 1.0 mg total dose): 24% | mean absolute bioavailability ([3]; 2.0 mg total dose): 25% | highest (treprostinil plasma) concentration observed ([3]; after the third dose aliquot of the 2.0 mg total dose): 5.51 ng/mL | tolerability ([3]; all doses given): well tolerated by the majority of subjects | AUCinf and Cmax versus dose ([3]; each of the four dose aliquots): increased in a linear fashion with dose

CCCCC[C@@H](CC[C@@H]1[C@H]2Cc3cccc(OCC(=O)O)c3C[C@H]2C[C@H]1O)OC(=O)[C@H](C)N [treprostinil monoalanine (chain), 3′-L-Alanyl Ester of Treprostinil]
Tmax (of Treprostinil) [4]: 5 min | Maximum Treprostinil concentrations [4]: approximately 9 ng/mL | adverse reactions following intraduodenal administration [4]: No adverse reactions were observed

CCCCC[C@H](O)CC[C@@H]1[C@H]2Cc3cccc(OCC(=O)[O-])c3C[C@H]2C[C@H]1O.[Na+] [treprostinil sodium, (1R,2R,3aS,9aS)-[[2,3,3a,4,9,9a-Hexahydro-2-hydroxy-1-[(3S)-3-hydroxyoctyl]-1H-benz[f]inden-5-yl]oxy]acetic acid monosodium salt]
absolute bioavailability [5]: ~100%

CCCCCC(O)CCC1C(OC(=O)C(C)N)CC2Cc3c(cccc3OCC(=O)O)CC21 [treprostinil monoalanine (ring), 2-L-Alanine Ester of Treprostinil]
Tmax (of Treprostinil) [4]: 60 min | adverse reactions following intraduodenal administration [4]: No adverse reactions were observed

CCCCC[C@H](CC[C@@H]1C2Cc3cccc(OCC(=O)O)c3CC2C[C@H]1OC(=O)CN)OC(=O)CN (some centres unmarked) [Treprostinil diglycine, Bis-Glycyl Ester of Treprostinil]
Treprostinil AUC compared with dosing the active compound [6]: greater than that after dosing of the active compound | adverse reactions following oral administration [6]: No adverse reactions were observed

CCCCC[C@H](O)CC[C@@H]1[C@H]2Cc3cccc(OCC(=O)O)c3C[C@H]2C[C@H]1O.OCCNCCO [Form B]
weight loss in moisture sorption ([1]; 5% RH): minimal weight loss | water absorbed ([1]; 95% RH): approximately 49% | loss upon desorption ([1]; from 95% down to 5% RH): approximately 47%

CCCCC[C@H](O)CC[C@@H]1[C@H]2Cc3cccc(OCC(=O)OC)c3C[C@H]2C[C@H]1O [Treprostinil methyl ester, Methyl Ester of Treprostinil]
Treprostinil AUC compared with dosing the active compound [6]: less than that after dosing the active compound | adverse reactions following oral administration [6]: No adverse reactions were observed

CCCCC[C@@H](O)CC[C@@H]1C2Cc3cccc(OCC(=O)OCc4ccccc4)c3CC2C[C@H]1O (some centres unmarked) [Treprostinil benzyl ester, Benzyl Ester of Treprostinil]
Treprostinil AUC compared with dosing the active compound [6]: greater than that after dosing of the active compound | adverse reactions following oral administration [6]: No adverse reactions were observed

CCCCCC(O)CCC1C(OP(=O)(O)O)CC2Cc3c(cccc3OCC(=O)O)CC21 (centres unmarked) [treprostinil monophosphate (ring), 2-Monophosphate Ester of Treprostinil]
Tmax (of Treprostinil) [4]: 5 min | Maximum Treprostinil concentrations [4]: approximately 9 ng/mL | adverse reactions following intraduodenal administration [4]: No adverse reactions were observed

CCCCCC(O)CCC1C(OC(=O)C(N)C(C)C)CC2Cc3c(cccc3OCC(=O)O)CC21 [treprostinil monovaline (ring), 2-L-Valine Ester of Treprostinil]
Tmax (of Treprostinil) [4]: 120 min | adverse reactions following intraduodenal administration [4]: No adverse reactions were observed
